Here are results for 24 compounds from patent publication US20250092051A1, “NLRP3 MODULATORS AND USE THEREOF” (Bioentropy Inc., priority 2023, published 2025).

Assay [1] has as its target T1, NLRP3 (Homo sapiens, UniProt Q96P20).
T1 construct: host or cells: THP-1 cells, PMA-differentiated, LPS-primed, nigericin-stimulated
The experiment in a line: IL-1β assay (ELISA of THP-1 culture supernatant). It is filed as cell-based. The note with it: PMA-differentiated THP-1, LPS 50 ng/ml 4 h, compound 30 min, nigericin 15 μM 45 min; Human IL-1β ELISA. How it is done:
(§1) THP-1 cell lines (procell, #CL-0233) were cultured in RPMI-1640 medium (Gibco, #C11875500BT) supplemented with 10% FBS, 100 U/ml penicillin, 100 µg/ml streptomycin and 0.05 mM β-mercaptoethanol (BME). THP-1 cells were seeded at 5×10^5/ml in 12 well plates and were differentiated into macrophages by incubation with 5 ng/ml PMA (Sigma, #P8139-1MG) for 48 h. Cells were washed with PBS and then were primed with 50 ng/ml LPS (InvivoGen, #tlrl-b5lps) for 4 h. Medium were removed and replaced with serum free medium (SFM) containing compound (2.5-40 nM) or MCC950 (5-25 nM) for 30 min. Cells were then stimulated with 15 μM nigericin (Invivogen, #tlrl-nig) for 45 min.
The culture supernatant of THP-1 was removed and analyzed using Human IL-1β ELISA Kit according to the manufacturer's instructions (Beyotime, #PI305). The IL-1β concentration was measured at 450 nm wavelength of absorbance and calculated.

In assay [2] the target is T1, NLRP3. Kind of assay: THP-1 pyroptosis assay (caspase-1 p20 in supernatant by Western blot). It is filed as cell-based. The note with it: PMA-differentiated THP-1, LPS 50 ng/ml 4 h, compound 30 min, nigericin 15 μM 45 min; caspase-1 p20 Western blot. How it is done: as §1
The protein of supernatants was concentrated using StrataClean™ resin (Agilent, #400714) according to the manufacturer's instructions. The protein samples were resolved on 4-20% SDS-PAGE gels and transferred onto 0.45 PVDF membrane (Immobilon-P #IPVH00010) using a wet transfer system. Membranes were blocked in 5% (w/v) dried milk in PBST for 1 h at room temperature. Membranes were incubated with primary antibody (Adipogen, #AG-20B-0048B-C100) diluted in Primary Antibody Dilution Buffer (Beyotime, #P0023A-100 ml) according to the manufacturer's instructions, followed by incubation with the IgG(H+L) (HRP-labeled Goat Anti-Mouse IgG(H+L) (Beyotime, #A0216) diluted in 1% (w/v) dried milk in PBST for 1 h. The protein expression was visualized using Super ECL Detection Reagent (YEASEN,
FIG. 1. Results of Western blots for THP-1 cell-based pyroptosis assay using the cleavage of caspase-1 into p20 as reporting indication of NLRP3 inhibition. […] Molecule N-027 (Compound #51) and N-027B (Compound #53) inhibits NLRP3 inflammasome activation in macrophages, N-027 IC50 (caspase-1)<5 nM; N-027B IC50 (caspase-1) 1 nM. THP-1 cells were primed for 4 h with LPS (50 ng/ml), and then LPS-primed THP-1 cells were incubated with N-027 or N-027B for 30 min and then stimulated with nigericin (15 μM) for 45 min. Caspase-1 (p20) in supernatants were measured by Western blots.

T1 sequence (Q96P20 whole entry): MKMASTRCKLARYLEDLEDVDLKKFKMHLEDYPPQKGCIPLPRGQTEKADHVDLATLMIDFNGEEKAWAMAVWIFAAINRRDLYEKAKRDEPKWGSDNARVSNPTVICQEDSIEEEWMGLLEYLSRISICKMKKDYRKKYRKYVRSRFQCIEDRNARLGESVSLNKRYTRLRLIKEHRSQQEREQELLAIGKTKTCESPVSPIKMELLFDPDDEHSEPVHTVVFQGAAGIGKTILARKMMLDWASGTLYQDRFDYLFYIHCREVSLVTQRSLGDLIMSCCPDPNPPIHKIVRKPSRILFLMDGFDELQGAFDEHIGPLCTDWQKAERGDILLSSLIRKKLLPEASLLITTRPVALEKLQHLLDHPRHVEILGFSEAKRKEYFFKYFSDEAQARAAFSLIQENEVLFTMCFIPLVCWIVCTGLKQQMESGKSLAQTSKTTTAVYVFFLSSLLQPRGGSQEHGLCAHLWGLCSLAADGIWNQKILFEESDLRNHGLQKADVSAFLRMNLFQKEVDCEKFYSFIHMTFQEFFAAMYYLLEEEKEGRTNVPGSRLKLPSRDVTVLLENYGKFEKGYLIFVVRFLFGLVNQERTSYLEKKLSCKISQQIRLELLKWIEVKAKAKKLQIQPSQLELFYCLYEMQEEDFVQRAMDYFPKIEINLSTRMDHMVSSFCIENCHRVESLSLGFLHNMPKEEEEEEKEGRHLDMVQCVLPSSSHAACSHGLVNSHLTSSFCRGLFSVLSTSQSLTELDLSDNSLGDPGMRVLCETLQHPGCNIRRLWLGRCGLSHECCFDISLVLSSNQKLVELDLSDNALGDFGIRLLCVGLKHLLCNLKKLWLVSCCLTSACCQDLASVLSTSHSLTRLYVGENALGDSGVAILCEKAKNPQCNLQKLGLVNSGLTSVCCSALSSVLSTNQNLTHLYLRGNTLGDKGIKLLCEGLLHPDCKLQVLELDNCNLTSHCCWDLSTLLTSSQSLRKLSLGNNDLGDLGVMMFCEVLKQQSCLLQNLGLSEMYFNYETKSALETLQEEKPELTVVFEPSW

`O=c1[nH]c(N2CCCC2)nc2nn(-c3ccc(Br)cc3Cl)nc12` [Compound 97, 2-(4-bromo-2-chlorophenyl)-5-(pyrrolidin-1-yl)-2,6-dihydro-7H-[1,2,3]triazolo[4,5-d]pyrimidin-7-one]: the results for the IC50 against NLRP3 [1] and at NLRP3 [2] were less than 20 nM and 5 nM, respectively.
For the compound `Cc1cc(C2CC2)cc(C)c1-n1nc2nc(N3CCOCC3)[nH]c(=O)c2n1` [Compound 3, 2-(4-cyclopropyl-2,6-dimethylphenyl)-5-morpholino-2,6-dihydro-7H-[1,2,3]triazolo[4,5-d]pyrimidin-7-one], the IC50 is less than 15 nM against NLRP3 [1] and less than 5 nM against NLRP3 [2].
The like results for `CCN1CCN(c2nc3nn(-c4c(C)cc(C5CC5)cc4C)nc3c(=O)[nH]2)CC1` [Compound 102, 2-(4-cyclopropyl-2,6-dimethylphenyl)-5-(4-ethylpiperazin-1-yl)-2,6-dihydro-7H-[1,2,3]triazolo[4,5-d]pyrimidin-7-one] were, in that order, greater than 100 nM and less than 40 nM.
The like results for `CCN1CCN(c2nc3nn(-c4c(C)cc(C5CC5)cc4F)nc3c(=O)[nH]2)CC1` [Compound 106, 2-(4-cyclopropyl-2-fluoro-6-methylphenyl)-5-(4-ethylpiperazin-1-yl)-2,6-dihydro-7H-[1,2,3]triazolo[4,5-d]pyrimidin-7-one] were, in that order, greater than 100 nM and greater than 100 nM.
With `Cc1cc(C2CC2)cc(C)c1-n1nc2nc(N3CCOC[C@H]3C)[nH]c(=O)c2n1` [Compound 107, (R)-2-(4-cyclopropyl-2,6-dimethylphenyl)-5-(3-methylmorpholino)-2H-[1,2,3]triazolo[4,5-d]pyrimidin-7(6H)-one], at NLRP3 [1], the IC50 was less than 33 nM.
In the case of `Cc1cc(Br)cc(C)c1-n1nc2nc(N3CCOCC3)[nH]c(=S)c2n1` [Compound 2, 2-(4-bromo-2,6-dimethylphenyl)-5-morpholino-2,6-dihydro-7H-[1,2,3]triazolo[4,5-d]pyrimidine-7-thione], the IC50 at NLRP3 [1] and on NLRP3 [2] was less than 1600 nM each time.
Consider `O=c1[nH]c(N2CCCC2)nc2nn(-c3ccc(Br)cc3C(F)(F)F)nc12` [Compound 75, 2-(4-bromo-2-(trifluoromethyl)phenyl)-5-(pyrrolidin-1-yl)-2,6-dihydro-7H-[1,2,3]triazolo[4,5-d]pyrimidin-7-one], for which the IC50 against NLRP3 [1] was less than 10 nM; against NLRP3 [2] it was 2.5 nM.
As for `O=c1[nH]c(N2CCCC2)nc2nn(-c3ccc(C4CC4)cc3C(F)(F)F)nc12` [Compound 77, 2-(4-cyclopropyl-2-(trifluoromethyl)phenyl)-5-(pyrrolidin-1-yl)-2,6-dihydro-7H-[1,2,3]triazolo[4,5-d]pyrimidin-7-one], the IC50 on NLRP3 [1] and at NLRP3 [2] was less than 10 nM in each case.
With `Cc1cc(C2CC2)cc(C)c1-n1nc2nc(N(C)CCN(C)C)[nH]c(=O)c2n1` [Compound 101, 2-(4-cyclopropyl-2,6-dimethylphenyl)-5-((2-(dimethylamino)ethyl)(methyl)amino)-2,6-dihydro-7H-[1,2,3]triazolo[4,5-d]pyrimidin-7-one], the IC50 on NLRP3 [1] was less than 100 nM; against NLRP3 [2], less than 10 nM.
The like results for `O=c1[nH]c(N2CCOCC2)nc2nn(-c3c(F)cc(C4CC4)cc3Cl)nc12` [Compound 103, 2-(2-chloro-4-cyclopropyl-6-fluorophenyl)-5-morpholino-2,6-dihydro-7H-[1,2,3]triazolo[4,5-d]pyrimidin-7-one] were, in that order, less than 10 nM and less than 10 nM.
Taken in the same sequence, the figures for `CCN1CCN(c2nc3nn(-c4ccc(C5CC5)cc4C(F)(F)F)nc3c(=O)[nH]2)CC1` [Compound 100, 2-(4-cyclopropyl-2-(trifluoromethyl)phenyl)-5-(4-ethylpiperazin-1-yl)-2,6-dihydro-7H-[1,2,3]triazolo[4,5-d]pyrimidin-7-one] were less than 200 nM and less than 100 nM.
Taken in the same sequence, the figures for `Cc1cc(Br)cc(C)c1-n1nc2nc(N3CCOCC3)[nH]c(=O)c2n1` [Compound 1, 2-(4-bromo-2,6-dimethylphenyl)-5-morpholino-2,6-dihydro-7H-[1,2,3]triazolo[4,5-d]pyrimidin-7-one] were less than 20 nM and less than 2.5 nM.
`Cc1cc(Cl)cc(C)c1-n1nc2nc(N3CCCC3)[nH]c(=O)c2n1` [Compound 63, 2-(4-chloro-2,6-dimethylphenyl)-5-(pyrrolidin-1-yl)-2,6-dihydro-7H-[1,2,3]triazolo[4,5-d]pyrimidin-7-one] came in with an IC50 against NLRP3 [2] of 10 nM.
Take `Cc1cc(Br)cc(C)c1-n1nc2nc(N3CCCC3)[nH]c(=O)c2n1` [Compound 51, 2-(4-bromo-2,6-dimethylphenyl)-5-(pyrrolidin-1-yl)-2,6-dihydro-7H-[1,2,3]triazolo[4,5-d]pyrimidin-7-one]: the IC50 against NLRP3 [1] and against NLRP3 [2] was less than 5 nM each time.
With `O=c1[nH]c(N2CCCC2)nc2nn(-c3c(F)cc(Br)cc3F)nc12` [Compound 99, 2-(4-bromo-2,6-difluorophenyl)-5-(pyrrolidin-1-yl)-2,6-dihydro-7H-[1,2,3]triazolo[4,5-d]pyrimidin-7-one], the IC50 was less than 20 nM against NLRP3 [1] and less than 10 nM against NLRP3 [2].
Turning to `CCN(CC)c1nc2nn(-c3c(C)cc(Br)cc3C)nc2c(=O)[nH]1` [Compound 95, 2-(4-bromo-2,6-dimethylphenyl)-5-(diethylamino)-2,6-dihydro-7H-[1,2,3]triazolo[4,5-d]pyrimidin-7-one], the IC50 at NLRP3 [1] and against NLRP3 [2] was less than 6.2 nM throughout.
In the case of `Cc1cc(C2CC2)cc(F)c1-n1nc2nc(N3CCOCC3)[nH]c(=O)c2n1` [Compound 104, 2-(4-cyclopropyl-2-fluoro-6-methylphenyl)-5-morpholino-2,6-dihydro-7H-[1,2,3]triazolo[4,5-d]pyrimidin-7-one], the IC50 is less than 10 nM against NLRP3 [1] and less than 6 nM at NLRP3 [2].
The like results for `O=c1[nH]c(N2CCOCC2)nc2nn(-c3c(F)cc(C4CC4)cc3C(F)(F)F)nc12` [Compound 105, 2-(4-cyclopropyl-2-fluoro-6-(trifluoromethyl)phenyl)-5-morpholino-2,6-dihydro-7H-[1,2,3]triazolo[4,5-d]pyrimidin-7-one] were, in that order, less than 10 nM and less than 6 nM.
At NLRP3 [1], `COc1nc(N2CCOCC2)nc2nn(-c3c(C)cc(C4CC4)cc3C)nc12` [Compound 109, 4-[2-(4-cyclopropyl-2,6-dimethyl-phenyl)-7-methoxy-triazolo[4,5-d]pyrimidin-5-yl]morpholine] had an IC50 greater than 10000 nM.
`Cc1cc(C2CC2)cc(C)c1-n1nc2nc(N3CCOCC3)[nH]c(=S)c2n1` [Compound 4, 2-(4-cyclopropyl-2,6-dimethylphenyl)-5-morpholino-2,6-dihydro-7H-[1,2,3]triazolo[4,5-d]pyrimidine-7-thione]: the IC50 against NLRP3 [1] and at NLRP3 [2] was greater than 1000 nM throughout.
In the case of `Cc1cc(C2CC2)cc(C)c1-n1nc2nc(N3CCOCC3)n(C)c(=O)c2n1` [Compound 108, 2-(4-cyclopropyl-2,6-dimethyl-phenyl)-6-methyl-5-morpholino-triazolo[4,5-d]pyrimidin-7-one], the IC50 on NLRP3 [1] was less than 500 nM.
Turning to `Cc1cc(C2CC2)cc(C)c1-n1nc2nc(N3CCCC3)[nH]c(=O)c2n1` [Compound 53, 2-(4-cyclopropyl-2,6-dimethylphenyl)-5-(pyrrolidin-1-yl)-2,6-dihydro-7H-[1,2,3]triazolo[4,5-d]pyrimidin-7-one], the IC50 against NLRP3 [1] was less than 5 nM; on NLRP3 [2] it was no more than 1 nM.
Turning to `O=c1[nH]c(N2CCCC2)nc2nn(-c3c(F)cc(Br)cc3Cl)nc12` [Compound 98, 2-(4-bromo-2-chloro-6-fluorophenyl)-5-(pyrrolidin-1-yl)-2,6-dihydro-7H-[1,2,3]triazolo[4,5-d]pyrimidin-7-one], the IC50 against NLRP3 [1] was less than 15 nM; against NLRP3 [2], 7.5 nM.
The like results for `O=c1[nH]c(N2CCCC2)nc2nn(-c3c(Cl)cc(Br)cc3Cl)nc12` [Compound 91, 2-(4-bromo-2,6-dichlorophenyl)-5-(pyrrolidin-1-yl)-2,6-dihydro-7H-[1,2,3]triazolo[4,5-d]pyrimidin-7-one] were, in that order, less than 15 nM and 7.5 nM.
